Assay results from ChEMBL document CHEMBL1126151, “A study on the contribution of the 1-phenyl substituent to the molecular electrostatic potentials of some benzazepines in relation to selective dopamine D-1 receptor activity” (J Med Chem, 1992).

Target: Adenylate cyclase
Test: Compound was tested for the adenylate cyclase stimulation
Format: protein assay

| SMILES | EC50 |
| --- | --- |
| Oc1cc2c(cc1O)[C@@H](C1CCCCC1)CNCC2 | > 0.00001 M |
| Oc1cc2c(cc1O)CCNCC2 | 5.2e-06 M |
